According to patent US6713515B2, “Retinoic acid receptor antagonists as promoters of angiogenesis” (Bristol Myers Squibb Company, priority 2000, dated 2004):
pEC50, pIC50, pKd: −log10 of the molar value. “Also recorded” adds a separate entry of the source.

Assays:
RAR-α [1] = target: T1, RAR-α (Homo sapiens, UniProt P10276); experiment: Receptor binding competition assay with radioactive t-RA; settings: apparent Kd from competition with radioactive t-RA, recombinant RAR; read-out: Direct Binding RAR-α Kd
T1 sequence (P10276 1-462): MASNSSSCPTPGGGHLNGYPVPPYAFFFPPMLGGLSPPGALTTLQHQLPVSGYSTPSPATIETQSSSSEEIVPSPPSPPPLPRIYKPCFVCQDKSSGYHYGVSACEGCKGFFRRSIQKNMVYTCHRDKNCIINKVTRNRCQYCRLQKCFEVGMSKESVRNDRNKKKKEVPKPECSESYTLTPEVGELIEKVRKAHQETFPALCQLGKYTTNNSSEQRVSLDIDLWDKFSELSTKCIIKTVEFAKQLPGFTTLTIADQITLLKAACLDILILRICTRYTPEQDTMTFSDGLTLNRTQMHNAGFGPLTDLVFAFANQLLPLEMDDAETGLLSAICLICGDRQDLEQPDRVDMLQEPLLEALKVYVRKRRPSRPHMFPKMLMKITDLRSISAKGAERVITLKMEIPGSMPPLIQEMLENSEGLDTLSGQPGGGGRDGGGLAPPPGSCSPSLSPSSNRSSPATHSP

RAR-γ [2] = target: T2, RAR-γ (Homo sapiens, UniProt P13631); experiment: Receptor transactivation, GAL4-RAR chimeric receptor/CAT reporter in HeLa cells; assay type: cell-based; settings: 24 hours
T2 sequence (P13631 with tags, fused parts or gaps limits assumed, species assumed): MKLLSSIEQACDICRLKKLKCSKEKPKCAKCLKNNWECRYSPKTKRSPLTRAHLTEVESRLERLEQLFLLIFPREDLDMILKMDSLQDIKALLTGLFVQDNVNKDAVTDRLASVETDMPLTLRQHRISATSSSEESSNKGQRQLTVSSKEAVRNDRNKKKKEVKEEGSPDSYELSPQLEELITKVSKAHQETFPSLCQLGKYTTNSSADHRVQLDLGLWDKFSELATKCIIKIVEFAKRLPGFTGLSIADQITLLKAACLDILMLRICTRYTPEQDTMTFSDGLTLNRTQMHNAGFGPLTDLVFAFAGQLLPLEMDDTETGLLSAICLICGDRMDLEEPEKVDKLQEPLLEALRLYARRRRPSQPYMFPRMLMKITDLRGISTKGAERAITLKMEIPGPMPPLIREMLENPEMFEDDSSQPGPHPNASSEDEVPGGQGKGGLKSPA

RAR-γ [3] = target: T2, RAR-γ; experiment: Transactivation competition assay (antagonist activity) in transfected HeLa cells; assay type: cell-based; settings: for Competition RAR-γ % MAX: inhibition of transactivation by 10^−7 M t-RA, 16 hours
Experimental: (§1) Antagonist Activity Antagonist activity of the test retinoids was evaluated by a transactivation competition assay. Transfected HeLa cells were treated for 16 hours with 10^−7 M t-RA, with or without test retinoids, at concentrations of 10^−8 to 10^−5 M. The cells were then harvested and assayed for CAT activity. The antagonist activity was determined as an IC50 for the inhibition of transactivation produced by t-RA.

RAR-α [4] = target: T3, RAR-α (Homo sapiens, UniProt P10276); experiment: as above; assay type: cell-based; settings: for Competition RAR-α % MAX: inhibition of transactivation by 10^−7 M t-RA, 16 hours
Experimental: as §1
T3 sequence (P10276 with tags, fused parts or gaps limits assumed, species assumed): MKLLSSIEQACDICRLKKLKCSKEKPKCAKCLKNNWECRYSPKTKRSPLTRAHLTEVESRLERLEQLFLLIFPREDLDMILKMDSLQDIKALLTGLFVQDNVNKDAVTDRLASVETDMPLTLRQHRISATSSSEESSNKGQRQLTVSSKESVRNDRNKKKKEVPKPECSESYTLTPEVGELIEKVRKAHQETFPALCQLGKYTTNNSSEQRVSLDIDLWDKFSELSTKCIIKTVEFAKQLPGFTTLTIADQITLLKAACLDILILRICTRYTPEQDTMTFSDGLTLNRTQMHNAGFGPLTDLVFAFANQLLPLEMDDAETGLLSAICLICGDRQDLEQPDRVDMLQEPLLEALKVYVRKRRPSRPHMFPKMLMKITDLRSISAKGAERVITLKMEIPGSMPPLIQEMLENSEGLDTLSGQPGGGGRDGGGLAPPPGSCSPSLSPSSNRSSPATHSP

RAR-γ [5] = target: T4, RAR-γ (Homo sapiens, UniProt P13631); experiment: Receptor binding competition assay with radioactive t-RA; settings: for pKd: apparent Kd from competition with radioactive t-RA, recombinant RAR, read-out: Direct Binding RAR-γ Kd
T4 sequence (P13631 1-454): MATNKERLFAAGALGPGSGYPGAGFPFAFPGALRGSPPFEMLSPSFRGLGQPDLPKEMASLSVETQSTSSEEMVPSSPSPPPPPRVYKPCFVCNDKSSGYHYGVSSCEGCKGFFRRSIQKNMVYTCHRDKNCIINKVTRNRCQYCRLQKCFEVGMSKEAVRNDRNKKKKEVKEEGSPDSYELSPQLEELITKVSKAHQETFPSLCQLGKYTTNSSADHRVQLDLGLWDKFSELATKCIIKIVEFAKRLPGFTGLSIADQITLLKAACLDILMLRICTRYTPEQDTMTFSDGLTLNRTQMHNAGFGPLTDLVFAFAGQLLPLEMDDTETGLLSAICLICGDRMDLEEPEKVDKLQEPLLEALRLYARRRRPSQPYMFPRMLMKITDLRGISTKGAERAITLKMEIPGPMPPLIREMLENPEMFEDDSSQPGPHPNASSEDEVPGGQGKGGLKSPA

RAR-α [6] = target: T3, RAR-α; experiment: Receptor transactivation, GAL4-RAR chimeric receptor/CAT reporter in HeLa cells; assay type: cell-based; settings: 24 hours
RAR-β [7] = target: T5, RAR-β (Homo sapiens, UniProt P10826); experiment: Transactivation competition assay (antagonist activity) in transfected HeLa cells; assay type: cell-based; settings: for Competition RAR-β % MAX: inhibition of transactivation by 10^−7 M t-RA, 16 hours
T5 sequence (P10826 with tags, fused parts or gaps limits assumed, species assumed): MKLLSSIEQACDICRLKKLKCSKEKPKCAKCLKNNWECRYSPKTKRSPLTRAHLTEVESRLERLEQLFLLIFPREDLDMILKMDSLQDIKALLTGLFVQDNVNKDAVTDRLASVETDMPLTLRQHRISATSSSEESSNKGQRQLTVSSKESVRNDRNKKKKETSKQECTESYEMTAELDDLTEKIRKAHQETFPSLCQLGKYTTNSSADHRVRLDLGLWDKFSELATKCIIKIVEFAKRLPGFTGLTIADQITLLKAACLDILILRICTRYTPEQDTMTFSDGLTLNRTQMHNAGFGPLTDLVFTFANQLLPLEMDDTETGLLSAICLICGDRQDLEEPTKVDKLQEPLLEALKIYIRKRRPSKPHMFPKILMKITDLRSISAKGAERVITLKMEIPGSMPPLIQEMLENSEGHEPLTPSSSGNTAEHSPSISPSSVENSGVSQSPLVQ

RAR-β [8] = target: T5, RAR-β; experiment: Receptor transactivation, GAL4-RAR chimeric receptor/CAT reporter in HeLa cells; assay type: cell-based
RAR-β [9] = target: T6, RAR-β (Homo sapiens, UniProt P10826); experiment: Receptor binding competition assay with radioactive t-RA; settings: apparent Kd from competition with radioactive t-RA, recombinant RAR; read-out: Direct Binding RAR-β Kd
T6 sequence (P10826 1-455): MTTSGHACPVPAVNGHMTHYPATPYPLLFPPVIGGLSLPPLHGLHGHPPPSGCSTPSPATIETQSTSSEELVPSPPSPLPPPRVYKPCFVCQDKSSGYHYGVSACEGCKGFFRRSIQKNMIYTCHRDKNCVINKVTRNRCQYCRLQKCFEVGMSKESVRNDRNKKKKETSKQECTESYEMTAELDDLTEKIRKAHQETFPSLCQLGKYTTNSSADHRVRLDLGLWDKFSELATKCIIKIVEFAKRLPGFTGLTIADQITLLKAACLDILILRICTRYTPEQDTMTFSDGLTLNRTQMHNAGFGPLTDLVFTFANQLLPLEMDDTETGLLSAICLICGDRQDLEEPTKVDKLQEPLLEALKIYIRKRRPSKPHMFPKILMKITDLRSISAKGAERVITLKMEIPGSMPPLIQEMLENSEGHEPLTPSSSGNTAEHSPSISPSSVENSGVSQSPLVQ

C57BL/KsJ mice = experiment: Skin flap model of angiogenesis; assay type: in vivo
Experimental: The skin flap model is a suitable in vivo approach to monitor the angiogenic response because it requires restoration of the disrupted blood vessel network that is impaired at the distal edge of the flap. A single application of vehicle (ethanol) or different concentrations of Compound 5 were performed. The results were monitored one and two weeks after the initiation of the experiment.
Sections were deparaffinized in xylene and rehydrated in a series of ethanol/water solutions. A 4% mouse non-immune serum in PBS was used for blocking. Monoclonal anti-PECAM-1 antibody (CD31, Sigma) was used at 1:100 dilution. FITC-conjugated anti-mouse IgG antibody (Sigma) was further applied to the sections at 1:200 dilution. Visualization was performed on an Olympus fluorescent microscope.
Female C57BL/KsJ mice were purchased from Jackson Labs (Bar Harbor, Me., USA) at the age of 6 weeks. Animals were acclimated for at least 2 weeks and housed 4 per cage with free access to water and food under 12 h light/dark cycle at a temperature of 23±2° C. and a humidity of 55±10%.
The mice were anesthetized by an IP injection of xyalazine/ketamine, the hair at the back clipped and the surface sterilized with 70% ethanol. A 3-way, full-thickness incision was introduced with the use of a scalpel, the skin flap separated from underlying tissues, the compound or vehicle applied, and the skin repositioned and sutured. Mice were housed individually after the procedure. The animals were sacrificed by CO2 inhalation and tissues were fixed in formalin, embedded in paraffin and evaluated histologically or immunocytochemically.

| SMILES | pKd (RAR-α [1]) | Transactivation RAR-γ % MAX (RAR-γ [2]) [%] | pIC50 (RAR-γ [3]) | Competition RAR-γ % MAX (RAR-γ [3]) [%] | pIC50 (RAR-α [4]) | Competition RAR-α % MAX (RAR-α [4]) [%] | pKd (RAR-γ [5]) | Transactivation RAR-α % MAX (RAR-α [6]) [%] | pIC50 (RAR-β [7]) | Competition RAR-β % MAX (RAR-β [7]) [%] | Transactivation RAR-β % MAX (RAR-β [8]; HeLa cells, 24 hours) [%] | pKd (RAR-β [9]) | RARβ transactivation (agonistic) activity, in words (RAR-β [8]; reporter transactivation assays) | pEC50 (RAR-β [8]; HeLa cells, 24 hours, 50% of the effect of 10^−6 M t-RA) | Amount of endothelial cells (anti-PECAM-1 staining) (C57BL/KsJ mice; 0.01% and 0.1%, dose-dependent, FIG. 4) | Number of blood vessels under the flap (histology, H&E) (C57BL/KsJ mice; lower dose group, FIG. 3 center panel) | Number of blood vessels under the flap (histology, H&E) (C57BL/KsJ mice; single application, 0.01% and 0.1%, one and two weeks, vs ethanol vehicle, FIG. 3) | Binding to RARγ relative to Compound 4 (RAR-γ [5]; comparison of Kd values) |
| --- | --- | --- | --- | --- | --- | --- | --- | --- | --- | --- | --- | --- | --- | --- | --- | --- | --- | --- |
| COc1ccc(C2=CCC(C)(C)c3ccc(/C=C/c4ccc(C(=O)O)cc4)cc32)cc1 [Compound 7, (E)-4-[2-[5,6-dihydro-5,5-dimethyl-8-(4-methoxyphenyl)-2-naphthalenyl]ethenyl]benzoic acid] | 8.89 | 0 | 6.00 | 100 | 6.40 | 100 | 8.59 | 0 | 6.00 | 100 | 0 | 8.21 |  |  |  |  |  |  |
| CC1=C(/C=C/C(C)=C/C=C/C(C)=C/C(=O)O)C(C)(C)CCC1 [All Trans RA, all trans retinoic acid, reference compound] |  | 100 |  |  |  |  |  | 100 |  |  | 100 |  |  |  |  |  |  |  |
| CC1(C)CC=C(c2ccccc2)c2cc(/C=C/c3ccc(C(=O)O)cc3)ccc21 [Compound 4, (E)-4-[2-(5,6-dihydro-5,5-dimethyl-8-phenyl-2-naphthalenyl)ethenyl]benzoic acid] | 9.00 | 0 | 6.70 | 100 | 6.70 | 100 | 9.30 | 0 |  | 80 | 20 |  | weak RARβ transactivation activity; also recorded: weak RARβ agonistic activity |  |  |  |  |  |
| CC1(C)CC=C(c2ccccc2)c2cc(/C=C/c3ccc(C(=O)O)cc3Cl)ccc21 [Compound 8, (E)-3-chloro-4-[2-(5,6-dihydro-5,5-dimethyl-8-phenyl-2-naphthalenyl)ethenyl]benzoic acid] | 6.70 | 0 | 5.70 | 80 | 5.52 | 80 | 6.61 | 0 |  | 0 | 110 | 8.55 |  | 8.00 |  |  |  |  |
| CC1(C)CC=C(C#Cc2ccccc2)c2cc(/C=C/c3ccc(C(=O)O)cc3)ccc21 [Compound 5, (E)-4-[[(5,6-dihydro-5,5-dimethyl-8-phenylethynyl)-2-naphthalenyl]ethenl]benzoic acid] | 8.38 | 0 | 6.52 | 100 | 6.70 | 100 | 7.01 | 0 | 6.52 | 100 | 0 | 8.54 |  |  | increased amounts of endothelial cells; also recorded: higher amounts of endothelial cells | increase in the number of blood vessels | increased angiogenesis; also recorded: significantly higher numbers of blood vessels | approximately two orders weaker |
| CC1(C)CC=C(c2ccc3ccccc3c2)c2cc(/C=C/c3ccc(C(=O)O)cc3)ccc21 [Compound 6, (E)-4-[2-[5,6-dihydro-5,5-dimethyl-8-(2-naphthalenyl)-2-naphthalenyl]ethenyl]-benzoic acid] | 8.70 | 0 | 6.05 | 100 | 6.52 | 100 | 7.62 | 0 | 6.30 | 100 | 0 | 7.24 |  |  |  |  |  |  |
